Laboratory results as given in US10626112B2, “Heterocyclic sulfonamide derivative and medicine comprising same” (EA PHARMA CO., LTD., priority 2014, dated 2020).

What follows are compounds tested against human TRPA1 (Homo sapiens (Human), UniProt O75762) (assay: Measurement of TRPA1 antagonist activity (2): as (1), different lot of human TRPA1 expression plasmid). Settings: 293T cells transfected with human TRPA1, allylisothiocyanate 20 μM stimulation, calcium fluorescence, read-out: hTRPA1 IC50.
Sequence of human TRPA1 (O75762 whole entry): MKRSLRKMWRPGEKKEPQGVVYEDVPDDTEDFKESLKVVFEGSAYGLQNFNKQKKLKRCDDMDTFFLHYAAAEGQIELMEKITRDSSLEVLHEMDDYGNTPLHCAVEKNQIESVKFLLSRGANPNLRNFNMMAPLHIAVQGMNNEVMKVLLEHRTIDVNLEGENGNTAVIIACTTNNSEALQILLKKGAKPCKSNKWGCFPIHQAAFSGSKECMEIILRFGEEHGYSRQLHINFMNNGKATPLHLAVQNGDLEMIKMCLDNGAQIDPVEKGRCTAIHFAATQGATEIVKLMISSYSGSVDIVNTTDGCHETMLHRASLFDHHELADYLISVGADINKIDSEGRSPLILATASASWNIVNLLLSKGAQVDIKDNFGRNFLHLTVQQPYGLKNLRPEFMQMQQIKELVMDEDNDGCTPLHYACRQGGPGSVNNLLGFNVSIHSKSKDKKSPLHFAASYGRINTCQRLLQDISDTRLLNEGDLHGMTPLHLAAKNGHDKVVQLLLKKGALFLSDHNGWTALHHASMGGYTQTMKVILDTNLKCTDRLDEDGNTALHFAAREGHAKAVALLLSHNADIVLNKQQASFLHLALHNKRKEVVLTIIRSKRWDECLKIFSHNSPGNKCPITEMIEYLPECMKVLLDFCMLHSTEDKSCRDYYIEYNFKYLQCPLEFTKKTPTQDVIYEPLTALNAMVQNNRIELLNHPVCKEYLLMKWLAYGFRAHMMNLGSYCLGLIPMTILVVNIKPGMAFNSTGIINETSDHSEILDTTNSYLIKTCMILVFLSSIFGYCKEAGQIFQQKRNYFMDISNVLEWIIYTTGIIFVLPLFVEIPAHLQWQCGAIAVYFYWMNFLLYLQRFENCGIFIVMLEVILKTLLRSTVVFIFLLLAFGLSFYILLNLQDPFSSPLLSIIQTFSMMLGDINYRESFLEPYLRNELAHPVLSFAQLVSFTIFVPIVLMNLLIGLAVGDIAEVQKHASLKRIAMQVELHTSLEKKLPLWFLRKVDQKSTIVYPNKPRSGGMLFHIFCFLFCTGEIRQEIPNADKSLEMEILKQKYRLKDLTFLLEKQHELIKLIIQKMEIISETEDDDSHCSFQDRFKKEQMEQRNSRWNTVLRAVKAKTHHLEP
Assay type: cell-based
Description: Human embryonic kidney-derived 293T cells were cultured in Dulbecco's Modified Eagle Medium containing 10% fetal bovine serum, 10 unit penicillin, and 10 μg streptomycin, plated on a petri dish having a diameter of 10 cm at 3×10^6 cells, and cultured for 24 hr in a CO2 incubator. A reduced serum medium (manufactured by Invitrogen, trade name: OPTI-MEM, 600 μL), a gene transfer reagent (manufactured by Mirus Bio, trade name: Mirus TransIT-293, 18 μL), and human TRPA1 expression plasmid (6 μg) were mixed, the total amount of the mixture was added to the cells on the petri dish to allow for gene transfer. The cells were recovered about for 8 hr later, plated on a poly-D-lysine coated 384 well black/clear bottom plate at 12,000 cells/well, and cultured overnight.
Measurement of Intracellular Calcium Increase
The 384 well plate was recovered, and the medium was removed. A calcium-bonded fluorescent indicator (manufactured by Molecular Device, trade name: Calcium4 Assay Kit, 38 μL) dissolved in assay buffer (1×HBSS, 20 mM HEPES, pH 7.2) was added, and the cells were stained in a CO2 incubator for 1 hr. The cells were taken out at room temperature, stood for not less than 15 min, a test substance (10 μL) was added by a platereader FDSS7000 (Hamamatsu Photonics K.K.) equipped with a 384ch dispenser. After 10 min, allylisothiocyanate (12 μL) was further added at a final concentration of 20 μM, and changes in the relative fluorescence intensity after addition of allylisothiocyanate were measured for 5 min.
Test Substance Preparation
The test substance was dissolved in dimethyl sulfoxide and serially diluted with an assay buffer containing 0.1% bovine serum albumin (1×HBSS, 20 mM HEPES, pH 7.2) to a 4.8-fold concentration of the evaluation concentration. Allylisothiocyanate, which is a known TRPA1 activator, was dissolved in dimethyl sulfoxide to 100 mM, and further diluted 5-fold (100 μM) of the final concentration, like the test substance.
Calculation of Antagonist Activity
Under the test substance-free conditions, the maximum variation range of the fluorescence intensity before and after allylisothiocyanate stimulation was defined to be 100% activity rate, and the variation range before and after buffer stimulation was defined as 0% activity rate. The activity rate on addition of the test substance was determined, and the numerical value obtained by subtracting the activity rate from 100 was defined to be an inhibitory rate. IC50, which is the concentration of the test substance necessary for reaching the 50% inhibitory rate, was calculated from the sigmoid approximate curve by a spreadsheet software Excel-Fit.
Measurement of TRPA1 Antagonist Activity (2)
By a method similar to that in Experimental Example 1-1 except that the lot of human […] expression plasmid is different, the TRPA1 antagonist activity of the test substance was measured.

IC50 [nM] | SMILES
7.9 | CC(C)N(CC(=O)NCc1cc(-c2ccc(C(F)(F)F)nc2)ncn1)S(=O)(=O)c1cc2cc(F)ccc2o1 [Example 359, 2-[(5-fluorobenzofuran-2-yl)sulfonyl-isopropyl-amino]-N-[[6-[6-(trifluoromethyl)-3-pyridyl]pyrimidin-4-yl]methyl]acetamide]
10 | CN(C)c1nc(CNC(=O)[C@@H]2CCCN2S(=O)(=O)c2cc3ccccc3o2)cc(-c2ccc(C(F)(F)F)nc2)n1 [Example 371, (2S)-1-(benzofuran-2-ylsulfonyl)-N-[[2-(dimethylamino)-6-[6-(trifluoromethyl)-3-pyridyl]pyrimidin-4-yl]methyl]pyrrolidine-2-carboxamide]
10 | CC(C)N(CC(=O)NCc1cc(-c2cnc(C(F)(F)F)nc2)ncn1)S(=O)(=O)c1cc2cc(F)ccc2o1 [Example 360, 2-[(5-fluorobenzofuran-2-yl)sulfonyl-isopropyl-amino]-N-[[6-[2-(trifluoromethyl)pyrimidin-5-yl]pyrimidin-4-yl]methyl]acetamide]
19 | CN(C)c1nc(CNC(=O)[C@@H]2CCN2S(=O)(=O)c2cc3cc(F)ccc3o2)cc(-c2ccc(C(F)(F)F)cc2)n1 [Example 379, (2S)-N-[[2-(dimethylamino)-6-[4-(trifluoromethyl)phenyl]-pyrimidin-4-yl]methyl]-1-(5-fluorobenzofuran-2-yl)sulfonyl-azetidine-2-carboxamide]
21 | O=C(CN(CC1CCNCC1)S(=O)(=O)c1cc2cc(F)ccc2o1)NCc1cc(-c2ccc(C(F)(F)F)cc2)ncn1 [Example 424, 2-[(5-fluorobenzofuran-2-yl)sulfonyl-(4-piperidylmethyl)amino]-N-[[6-[4-(trifluoromethyl)phenyl]pyrimidin-4-yl]methyl]acetamide]
3 | CCN([C@@H](C)C(=O)NCc1cc(-c2ccc(C(F)(F)F)cc2)ncn1)S(=O)(=O)c1cc2cc(F)ccc2o1 [Example 422, (2S)-2-[ethyl-(5-fluorobenzofuran-2-yl)sulfonyl-amino]-N-[[6-[4-(trifluoromethyl)phenyl]pyrimidin-4-yl]methyl]propanamide]
38 | CN(C)c1nc(CNC(=O)[C@@H]2CCN2S(=O)(=O)c2cc3ccccc3o2)cc(-c2ccc(C(F)(F)F)nc2)n1 [Example 410, (2S)-1-(benzofuran-2-ylsulfonyl)-N-[[2-(dimethylamino)-6-[6-(trifluoromethyl)-3-pyridyl]pyrimidin-4-yl]methyl]azetidine-2-carboxamide]
12 | O=C(NCc1cc(-c2ccc(C(F)(F)F)cn2)ncn1)[C@@H]1CCN1S(=O)(=O)c1cc2cc(F)ccc2o1 [Example 401, (2S)-1-(5-fluorobenzofuran-2-yl)sulfonyl-N-[[6-[5-(trifluoromethyl)-2-pyridyl]pyrimidin-4-yl]methyl]azetidine-2-carboxamide]
280 | O=C(CNS(=O)(=O)c1cc2cc(F)ccc2o1)NCc1cc(-c2ccc(C(F)(F)F)cn2)ccn1 [Example 343, 2-[(5-fluorobenzofuran-2-yl)sulfonylamino]-N-[[4-[5-(trifluoromethyl)-2-pyridyl]-2-pyridyl]methyl]acetamide]
110 | C[C@H](NS(=O)(=O)c1cc2cc(F)ccc2o1)C(=O)NCc1cc(-c2ccc(C(F)(F)F)cc2O)nc(N(C)C)n1 [Example 377, (2S)-N-[[2-(dimethylamino)-6-[2-hydroxy-4-(trifluoromethyl)phenyl]-pyrimidin-4-yl]methyl]-2-[(5-fluorobenzofuran-2-yl)sulfonylamino]propanamide]
44 | COCCN(CC(=O)NCc1cc(-c2ccc(C(F)(F)F)cc2)ncn1)S(=O)(=O)c1cc2cc(F)ccc2o1 [Example 357, 2-[(5-fluorobenzofuran-2-yl)sulfonyl-(2-methoxyethyl)-amino]-N-[[6-[4-(trifluoromethyl)-phenyl]pyrimidin-4-yl]methyl]acetamide]
11 | CN(CC(=O)NCc1cc(-c2ccc(C(F)(F)F)cn2)ccn1)S(=O)(=O)c1cc2cc(F)ccc2o1 [Example 339, 2-[(5-fluorobenzofuran-2-yl)sulfonyl-methyl-amino]-N-[[4-[5-(trifluoromethyl)-2-pyridyl]-2-pyridyl]methyl]acetamide]
3.5 | O=C(NCc1ccnc(-c2cnc(C(F)(F)F)nc2)c1)[C@@H]1CCCN1S(=O)(=O)c1cc2cc(F)ccc2o1 [Example 402, (2S)-1-(5-fluorobenzofuran-2-yl)sulfonyl-N-[[2-[2-(trifluoromethyl)pyrimidin-5-yl]-4-pyridyl]methyl]pyrrolidine-2-carboxamide]
170 | O=C(NCc1cc(-c2ccc(C(F)(F)F)cn2)ccn1)C(CF)NS(=O)(=O)c1cc2cc(F)ccc2o1 (stereo not drawn) [Example 427, 3-fluoro-2-[(5-fluorobenzofuran-2-yl)sulfonylamino]-N-[[4-[5-(trifluoromethyl)-2-pyridyl]-2-pyridyl]methyl]propanamide]
7.6 | O=C(NCc1cc(-c2ccc(C(F)(F)F)cn2)cnn1)[C@@H]1CCCN1S(=O)(=O)c1cc2cc(F)ccc2o1 [Example 396, (2S)-1-(5-fluorobenzofuran-2-yl)sulfonyl-N-[[5-[5-(trifluoromethyl)-2-pyridyl]pyridazin-3-yl]methyl]pyrrolidine-2-carboxamide]
7 | CN(CC(=O)NCc1cc(-c2ccc(OC(F)(F)F)cc2)ncn1)S(=O)(=O)c1cc2cc(F)ccc2o1 [Example 362, 2-[(5-fluorobenzofuran-2-yl)sulfonyl-methyl-amino]-N-[[6-[4-(trifluoromethoxy)-phenyl]pyrimidin-4-yl]methyl]acetamide]
270 | O=C(CNS(=O)(=O)c1cc2cc(F)ccc2o1)NCc1cc(-c2ccc(C(F)(F)F)cc2)ncn1 [Example 345, 2-[(5-fluorobenzofuran-2-yl)sulfonylamino]-N-[[6-[4-(trifluoromethyl)phenyl]-pyrimidin-4-yl]methyl]acetamide]
180 | C[C@H](C(=O)NCc1cc(-c2ccc(C(F)(F)F)cn2)ccn1)N(C)S(=O)(=O)c1cc2cc(F)ccc2o1 [Example 342, (2R)-2-[(5-fluorobenzofuran-2-yl)sulfonyl-methyl-amino]-N-[[4-[5-(trifluoromethyl)-2-pyridyl]-2-pyridyl]methyl]propanamide]
700 | O=C(NCc1cc(-c2ccc(C(F)(F)F)cn2)ccn1)[C@@H]1CCCN1S(=O)(=O)c1cc2ccncc2o1 [Example 346, (2S)-1-furo[2,3-c]pyridin-2-ylsulfonyl-N-[[4-[5-(trifluoromethyl)-2-pyridyl]-2-pyridyl]methyl]pyrrolidine-2-carboxamide]
5.2 | O=C(NCc1cc(-c2ccc(C(F)(F)F)cn2)ncn1)[C@@H]1CCCN1S(=O)(=O)c1cc2cc(F)ccc2o1 [Example 400, (2S)-1-(5-fluorobenzofuran-2-yl)sulfonyl-N-[[6-[5-(trifluoromethyl)-2-pyridyl]pyrimidin-4-yl]methyl]pyrrolidine-2-carboxamide]
44 | C[C@H](NS(=O)(=O)c1cc2cnccc2o1)C(=O)NCc1cc(-c2ccc(C(F)(F)F)cc2)nc(N(C)C)n1 [Example 369, (2S)-N-[[2-(dimethylamino)-6-[4-(trifluoromethyl)-phenyl]pyrimidin-4-yl]methyl]-2-(furo[3,2-c]pyridin-2-ylsulfonylamino)propanamide]
